Source: patent EP0325279A1, “Dehydrocholecalciferol derivatives” (F. HOFFMANN-LA ROCHE AG, priority 1988, dated 1989)
“And” between values parts separate entries of the source, which are not always exact repeats. Equal entries are not always repeated.

Key:
Type in all cases: cell-based
[1] = system: menschlicher promyelocytischer Tumorzellen HL-60; experiment: Differentiation-inducing (DI) effect on HL-60 cells
Excerpt: (§1) Zum Nachweis der Aktivität der Verbindungen der Formel I als Mittel zur Behandlung von neoplastischen Krankheiten wurden die antiproliferativen (AP) und die Differenzierung induzierenden Effekte (DI) der Verbindungen A bis F sowie die Anzahl menschlicher promyelocytischer Tumorzellen HL-60 ermittelt. In Tabelle 6 ist der AP Effekt als prozentuale Reduktion der Anzahl Zellen und als Konzentration ID₅₀, die die Zellenanzahl um 50% reduziert, angegeben. Der DI Effekt ist angegeben als Prozentsatz der differenzierten Zellen und als Konzentration ED₅₀ der Verbindungen, die eine 50%ige Differenzierung der Zellen bewirkt.

[2] = system: gezüchteten menschlichen Keratinocyten; experiment: Morphological differentiation of cultured human keratinocytes (cell counts by cell type)
[3] = system: menschlichen Keratinocyten; experiment: Number of human keratinocytes and cornified squamous cells formed in presence of compound
Excerpt: (§2) Die Aktivität der Verbindungen der Formel I als Mittel für die Behandlung von hyperproliferativen Hautkrankheiten kann auch durch Ermittlung der Anzahl von menschlichen Keratinocyten, von verhornten Plattenepithelzellen und von Plattenepithel-Karzinomzellenlinien (SCC-115), die sich in Gegenwart der besagten Verbindungen bilden.
(§3) Die Resultate sind in den Tabellen 4 und 5 angegeben: Tabelle 4

[4] = system: Plattenepithel-Karzinomzellenlinien (SCC-15); experiment: Number of squamous carcinoma cell line cells formed in presence of compound
Excerpt: as §2, §3

[5] = system: menschlicher promyelocytischer Tumorzellen HL-60; experiment: Antiproliferative (AP) effect on HL-60 cells
Excerpt: as §1

[6] = Konzentration 0.01 (head prints x10 M)
[7] = Konzentration 0.1 (head prints x10 M)
[8] = Konzentration 1 (head prints x10 M)
[9] = Konzentration 10 (head prints x10 M)

SMILES: C=C1/C(=C\C=C2/CCC[C@]3(C)C([C@H](C)CC#CC(C)(C)O)=CC[C@@H]23)C[C@@H](O)C[C@@H]1O [Verbindung E]
- EC50 ([1]; Homo sapiens, concentration that causes 50% differentiation of the cells, read-out: ED50 (the source's name)): 1 nM
- Differenzierte Zellen (%) [1, 6]: 9%
- Differenzierte Zellen (%) [1, 7]: 50%
- Differenzierte Zellen (%) [1, 8]: 96%
- Differenzierte Zellen (%) [1, 9]: 98%
- Anzahl Zellen (x10⁴): Basalzellen ([2]; Dosis 10⁻¹⁰ M): 63±2 x10⁴
- Anzahl Zellen (x10⁴): Gesamtanzahl ([2]; Dosis 10⁻¹⁰ M): 86±4 x10⁴
- Anzahl Zellen (x10⁴): Plattenepithelzellen ([2]; Dosis 10⁻¹⁰ M): 23±2 x10⁴
- Anzahl Zellen (x10⁴): verhornte Plattenepithelzellen ([2]; Dosis 10⁻¹⁰ M): 114±5 x10⁴
- Anzahl Zellen (x10⁴): Basalzellen ([2]; Dosis 10⁻⁶ M): 41±1 x10⁴
- Anzahl Zellen (x10⁴): Gesamtanzahl ([2]; Dosis 10⁻⁶ M): 78±3 x10⁴
- Anzahl Zellen (x10⁴): Plattenepithelzellen ([2]; Dosis 10⁻⁶ M): 27±2 x10⁴
- Anzahl Zellen (x10⁴): verhornte Plattenepithelzellen ([2]; Dosis 10⁻⁶ M): 147±4 x10⁴
- Anzahl Zellen (x10⁴): Basalzellen ([2]; Dosis 10⁻⁸ M): 53±2 x10⁴
- Anzahl Zellen (x10⁴): Gesamtanzahl ([2]; Dosis 10⁻⁸ M): 82±3 x10⁴
- Anzahl Zellen (x10⁴): Plattenepithelzellen ([2]; Dosis 10⁻⁸ M): 29±1 x10⁴
- Anzahl Zellen (x10⁴): verhornte Plattenepithelzellen ([2]; Dosis 10⁻⁸ M): 141±5 x10⁴
- Anzahl Keratinocten (x10⁴) ([3]; Dosis 10⁻¹² M): 187.36±15.33 x10⁴
- Anzahl verhornte Plattenepithelzellen (x10²) ([3]; Dosis 10⁻¹² M): 1136.63± 383.66 x10²
- Anzahl Keratinocten (x10⁴) ([3]; Dosis 10⁻¹⁰ M): 175.34±10.19 x10⁴
- Anzahl verhornte Plattenepithelzellen (x10²) ([3]; Dosis 10⁻¹⁰ M): 1444.87± 312.47 x10²
- Anzahl Keratinocten (x10⁴) ([3]; Dosis 10⁻⁶ M): 41.95± 7.53 x10⁴
- Anzahl verhornte Plattenepithelzellen (x10²) ([3]; Dosis 10⁻⁶ M): 1916.83± 887.66 x10²
- Anzahl Keratinocten (x10⁴) ([3]; Dosis 10⁻⁸ M): 145.79±15.66 x10⁴
- Anzahl verhornte Plattenepithelzellen (x10²) ([3]; Dosis 10⁻⁸ M): 2113.62±1049.33 x10²
- Anzahl Zellenlinien (SCC-15) (x10⁵) ([4]; Dosis 10⁻¹² M): 6.98±1.68 x10⁵
- Anzahl Zellenlinien (SCC-15) (x10⁵) ([4]; Dosis 10⁻¹⁰ M): 5.89±1.58 x10⁵
- Anzahl Zellenlinien (SCC-15) (x10⁵) ([4]; Dosis 10⁻⁶ M): 0.40±0.98 x10⁵ and 0.49±0.13 x10⁵
- Anzahl Zellenlinien (SCC-15) (x10⁵) ([4]; Dosis 10⁻⁸ M): 5.76±1.53 x10⁵
- IC50 ([5]; Homo sapiens, concentration that reduces the cell number by 50%, read-out: ID50 (the source's name)): 0.7 nM
- % Reduktion der Anzahl Zellen [5, 6]: 6%
- % Reduktion der Anzahl Zellen [5, 7]: 59%
- % Reduktion der Anzahl Zellen [5, 8]: 80%
- % Reduktion der Anzahl Zellen [5, 9]: 81%
